Assay results from US11597727B2 (THE REGENTS OF THE UNIVERSITY OF CALIFORNIA, priority 2018, dated 2023).

target: integrin α2β1 (Homo sapiens, UniProt P05556+P17301); experiment: HT 1080 cell adhesion assay on rat tail collagen I; assay type: cell-based; set-up: HT1080 (human fibrosarcoma) cells (or human airway smooth muscle cells) were detached and resuspended in serum-free DMEM; endogenous in cells; host or cells: HT1080 human fibrosarcoma cells; settings: HT1080 (human fibrosarcoma) cells on rat tail collagen I, absorbance at 595 nm, triplicate; read-out: IC50s from HT 1080 Cell adhesion assay
Experimental: Cell adhesion Assay: Ninety-six-well flat-bottomed tissue culture plates were coated with rat tail collagen I for 1 hour at 37° C. After incubation, wells were blocked with 1% BSA at 37° C. for 1 hour. Control wells were filled with 1% BSA. HT1080 (human fibrosarcoma) cells (or human airway smooth muscle cells) were detached and resuspended in serum-free DMEM. Cells were incubated with anti-integrin alpha2 antibody control or 10-fold dilutions of each compound with a starting concentration of 10 uM for 15 minutes at 4° C. before plating. The plates were centrifuged at 10 g for 5 minutes before incubation for 1 hour at 37° C. in humidified 5% CO2. Nonadherent cells were removed by centrifugation (top side down) at 10 g for 5 minutes. Attached cells were stained with 0.5% crystal violet, and the wells were washed with PBS. The relative number of cells in each well was evaluated after solubilization in 40 μl of 2% Triton X-100 by measuring absorbance at 595 nm in a microplate reader. All determinations were carried out in triplicate.

Chain of integrin α2β1 (P17301 30-1181): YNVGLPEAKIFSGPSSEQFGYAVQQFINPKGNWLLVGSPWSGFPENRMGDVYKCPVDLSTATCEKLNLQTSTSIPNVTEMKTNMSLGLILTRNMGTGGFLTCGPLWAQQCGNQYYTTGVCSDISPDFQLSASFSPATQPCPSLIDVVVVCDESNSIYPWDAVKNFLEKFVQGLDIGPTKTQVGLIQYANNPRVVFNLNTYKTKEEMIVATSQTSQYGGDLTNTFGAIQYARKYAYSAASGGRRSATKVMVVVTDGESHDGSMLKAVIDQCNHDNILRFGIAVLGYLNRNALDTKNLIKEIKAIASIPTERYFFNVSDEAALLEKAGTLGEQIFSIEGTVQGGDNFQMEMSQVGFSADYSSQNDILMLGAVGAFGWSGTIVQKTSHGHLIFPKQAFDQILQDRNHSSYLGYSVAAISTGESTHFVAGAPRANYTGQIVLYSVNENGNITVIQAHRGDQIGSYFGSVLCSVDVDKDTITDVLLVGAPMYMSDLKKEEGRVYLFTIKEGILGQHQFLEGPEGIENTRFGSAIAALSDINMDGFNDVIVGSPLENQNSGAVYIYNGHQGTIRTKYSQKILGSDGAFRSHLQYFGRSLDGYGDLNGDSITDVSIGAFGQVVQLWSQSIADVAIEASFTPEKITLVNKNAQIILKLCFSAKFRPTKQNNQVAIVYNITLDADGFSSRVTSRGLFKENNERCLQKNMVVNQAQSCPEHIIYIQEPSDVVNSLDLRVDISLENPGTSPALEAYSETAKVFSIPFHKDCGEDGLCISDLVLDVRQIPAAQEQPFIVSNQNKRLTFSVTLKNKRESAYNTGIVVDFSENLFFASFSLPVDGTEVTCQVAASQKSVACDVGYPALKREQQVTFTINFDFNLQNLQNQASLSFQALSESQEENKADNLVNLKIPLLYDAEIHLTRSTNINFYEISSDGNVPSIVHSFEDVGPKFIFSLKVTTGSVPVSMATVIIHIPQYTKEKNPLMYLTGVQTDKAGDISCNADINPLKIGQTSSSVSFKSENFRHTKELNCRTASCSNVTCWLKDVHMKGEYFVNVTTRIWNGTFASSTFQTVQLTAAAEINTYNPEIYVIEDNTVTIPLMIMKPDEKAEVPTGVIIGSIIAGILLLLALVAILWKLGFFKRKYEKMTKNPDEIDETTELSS
Chain of integrin α2β1 (P05556 21-798): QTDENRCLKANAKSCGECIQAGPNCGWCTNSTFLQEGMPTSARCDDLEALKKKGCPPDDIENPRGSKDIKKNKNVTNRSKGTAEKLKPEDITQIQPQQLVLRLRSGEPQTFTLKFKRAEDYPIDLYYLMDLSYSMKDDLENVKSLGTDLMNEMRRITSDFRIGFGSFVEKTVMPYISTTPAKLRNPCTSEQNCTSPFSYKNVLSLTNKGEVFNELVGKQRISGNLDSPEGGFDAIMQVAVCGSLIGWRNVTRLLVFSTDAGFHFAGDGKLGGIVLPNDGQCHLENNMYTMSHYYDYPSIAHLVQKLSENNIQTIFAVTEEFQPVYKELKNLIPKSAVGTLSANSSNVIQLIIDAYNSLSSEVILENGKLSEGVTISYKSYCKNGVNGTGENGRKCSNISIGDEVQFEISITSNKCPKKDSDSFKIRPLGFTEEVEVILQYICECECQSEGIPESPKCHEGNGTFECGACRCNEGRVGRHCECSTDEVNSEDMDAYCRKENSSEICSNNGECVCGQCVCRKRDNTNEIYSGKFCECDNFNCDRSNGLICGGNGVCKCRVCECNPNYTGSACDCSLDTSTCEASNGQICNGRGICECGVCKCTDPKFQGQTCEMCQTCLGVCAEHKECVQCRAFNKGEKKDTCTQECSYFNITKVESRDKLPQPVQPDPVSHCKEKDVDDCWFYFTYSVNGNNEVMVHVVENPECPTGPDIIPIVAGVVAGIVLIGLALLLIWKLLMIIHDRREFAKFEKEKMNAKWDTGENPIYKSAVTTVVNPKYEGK

Structure (SMILES)	IC50
O=C(NC[C@H](NC(=O)c1c(Cl)cccc1Cl)C(=O)O)NCC12CC3CC(CC(C3)C1)C2 [A2-83]	10 to 100 µM
O=C(NCC1CC2(CCC2)C1)NC[C@H](NC(=O)c1c(Cl)cccc1Cl)C(=O)O [A2-178, (S)-2-(2,6-dichlorobenzamido)-3-(3-(spiro[3.3]heptan-2-ylmethyl)ureido)propanoic acid]	10 to 100 µM
O=C(NC[C@H](NC(=O)c1c(Cl)cccc1Cl)C(=O)O)N[C@H]1CCCc2ccccc21 [A2-125, (S)-2-(2,6-dichlorobenzamido)-3-(3-((S)-1,2,3,4-tetrahydronaphthalen-1-yl)ureido)propanoic acid]	< 10 µM
COc1cccc(OC)c1C(=O)N[C@@H](CNC(=O)NCc1ccccc1)C(=O)O [A2-28, (S)-3-(3-benzylureido)-2-(2,6-dimethoxybenzamido)propanoic acid]	> 100 µM
CC(NC(=O)NCC(NC(=O)c1c(Cl)cccc1Cl)C(=O)O)C1CC2CCC1C2 [A2-176, (2S)-3-(3-(1-((1 S,4R)-bicyclo[2.2.1]heptan-2-yl)ethyl)ureido)-2-(2,6-dichlorobenzamido)propanoic acid]	10 to 100 µM
CC(C)(C)OC(=O)NC[C@H](NC(=O)c1c(Cl)cccc1Cl)C(=O)O [A2-39, (S)-3-((tert-butoxycarbonyl)amino)-2-(2,6-dichlorobenzamido)propanoic acid]	10 to 100 µM
C[C@@H]1[C@H]2C[C@@H](C[C@H]1NC(=O)NC[C@H](NC(=O)c1c(Cl)cccc1Cl)C(=O)O)C2(C)C [A2-170, (S)-2-(2,6-dichlorobenzamido)-3-(3-((1R,2R,3R,5S)-2,6,6-trimethylbicyclo[3.1.1]heptan-3-yl)ureido)propanoic acid]	10 to 100 µM
Cc1cc(OC(C)C)cc(C)c1C(=O)N[C@@H](CNC(=O)NCc1ccccc1)C(=O)O [A2-61, (S)-3-(3-benzylureido)-2-(4-isopropoxy-2,6-dimethylbenzamido)propanoic acid]	10 to 100 µM
CC1(C)C2CCC1(C)C(NC(=O)NC[C@H](NC(=O)c1c(Cl)cccc1Cl)C(=O)O)C2 (stereo partly drawn) [A2-171, (2S)-2-(2,6-dichlorobenzamido)-3-(3-(1,7,7-trimethylbicyclo[2.2.1]heptan-2-yl)ureido)propanoic acid]	< 10 µM
O=C(NC[C@H](NC(=O)c1c(Cl)cccc1Cl)C(=O)O)N[C@H]1CCc2ccccc21 [A2-86, (S)-2-(2,6-dichlorobenzamido)-3-(3-((S)-2,3-dihydro-1H-inden-1-yl)ureido)propanoic acid]	10 to 100 µM
O=C(NC[C@H](NC(=O)c1c(Cl)cccc1Cl)C(=O)O)NC1Cc2ccccc2C1 [A2-84, (S)-2-(2,6-dichlorobenzamido)-3-(3-(2,3-dihydro-1H-inden-2-yl)ureido)propanoic acid]	10 to 100 µM
O=C(NC[C@H](NC(=O)c1c(Cl)cccc1Cl)C(=O)O)NC(c1ccccc1)c1ccccc1 [A2-127, (S)-3-(3-benzhydrylureido)-2-(2,6-dichlorobenzamido)propanoic acid]	10 to 100 µM
CC12CC3CC(C)(C1)CC(NC(=O)NC[C@H](NC(=O)c1c(Cl)cccc1Cl)C(=O)O)(C3)C2 [A2-128, (S)-2-(2,6-dichlorobenzamido)-3-(3-(3,5-dimethyladamantan-1-yl)ureido)propanoic acid]	10 to 100 µM
Cc1cc(C)c(C(=O)N[C@@H](CNC(=O)NCc2ccccc2)C(=O)O)c(C)c1 [A2-26, (S)-3-(3-benzylureido)-2-(2,4,6-trimethylbenzamido)propanoic acid]	10 to 100 µM
CCC(CC)C(=O)N[C@@H](CNC(=O)NCc1ccccc1)C(=O)O [A2-38, (S)-3-(3-benzylureido)-2-(2-ethylbutanamido)propanoic acid]	> 100 µM
O=C(NCC1CC2CCC1CC2)NC[C@H](NC(=O)c1c(Cl)cccc1Cl)C(=O)O (stereo partly drawn) [A2-175]	10 to 100 µM
CC(C)CC(=O)N[C@@H](CNC(=O)NCc1ccccc1)C(=O)O [A2-37, (S)-3-(3-benzylureido)-2-(3-methylbutanamido)propanoic acid]	> 100 µM
Cc1cccc(Cl)c1C(=O)N[C@@H](CNC(=O)NCc1ccccc1)C(=O)O [A2-35, (S)-3-(3-benzylureido)-2-(2-chloro-6-methylbenzamido)propanoic acid]	10 to 100 µM
O=C(NC[C@H](NC(=O)c1c(Cl)cccc1Cl)C(=O)O)NC1C2CC3CC(C2)CC1C3 (stereo partly drawn) [A2-130, (S)-3-(3-(adamantan-2-yl)ureido)-2-(2,6-dichlorobenzamido)propanoic acid]	< 10 µM
O=C(NC[C@H](NC(=O)c1c(Cl)cccc1Cl)C(=O)O)NC12CC3CC(C1)CC(C(F)(F)F)(C3)C2 [A2-131, (S)-2-(2,6-dichlorobenzamido)-3-(3-(3-(trifluoromethyl)adamantan-1-yl)ureido)propanoic acid]	10 to 100 µM
O=C(NC[C@H](NC(=O)c1c(Cl)cccc1Cl)C(=O)O)NCC12CC3CC(CC(Cl)(C3)C1)C2 [A2-156, (S)-3-(3-((3-chloroadamantan-1-yl)methyl)ureido)-2-(2,6-dichlorobenzamido)propanoic acid]	10 to 100 µM
CN(C)C(=O)NC[C@H](NC(=O)c1c(Cl)cccc1Cl)C(=O)O [A2-70, (S)-2-(2,6-dichlorobenzamido)-3-(3,3-dimethylureido)propanoic acid]	> 100 µM
CCN(CC)C(=O)NC[C@H](NC(=O)c1c(Cl)cccc1Cl)C(=O)O [A2-71, (S)-2-(2,6-dichlorobenzamido)-3-(3,3-diethylureido)propanoic acid]	> 100 µM
O=C(NC[C@H](NC(=O)c1c(Cl)cccc1Cl)C(=O)O)NC12CC3CC(CC(O)(C3)C1)C2 [A2-144, (S)-2-(2,6-dichlorobenzamido)-3-(3-(3-hydroxyadamantan-1-yl)ureido)propanoic acid]	10 to 100 µM
CC12CC3CC(C1)CC(NC(=O)NC[C@H](NC(=O)c1c(Cl)cccc1Cl)C(=O)O)(C3)C2 [A2-157, (S)-2-(2,6-dichlorobenzamido)-3-(3-(3-methyladamantan-1-yl)ureido)propanoic acid]	10 to 100 µM

Results, then the molecule that gave them:

IC50	Structure (SMILES)
10 to 100 µM	O=C(N[C@@H](CNC(=S)NCc1ccccc1)C(=O)O)c1c(Cl)cccc1Cl [KZ-1-21, (S)-3-(3-benzylthioureido)-2-(2,6-dichlorobenzamido)propanoic acid]
10 to 100 µM	Cc1ccccc1CNC(=O)NC[C@H](NC(=O)c1c(Cl)cccc1Cl)C(=O)O [KZ-1-39, (S)-2-(2,6-dichlorobenzamido)-3-(3-(2-methylbenzyl)ureido)propanoic acid]
10 to 100 µM	Cc1cccc(CNC(=O)NC[C@H](NC(=O)c2c(Cl)cccc2Cl)C(=O)O)c1 [KZ-1-16, (S)-2-(2,6-dichlorobenzamido)-3-(3-(3-methylbenzyl)ureido)propanoic acid]
> 100 µM	CC(C)(C)CNC(=O)NC[C@H](NC(=O)c1c(Cl)cccc1Cl)C(=O)O [KZ-1-40, (S)-2-(2,6-dichlorobenzamido)-3-(3-neopentylureido)propanoic acid]
> 100 µM	C[C@H](NC(=O)NC[C@H](NC(=O)c1c(Cl)cccc1Cl)C(=O)O)c1ccccc1 [KZ-1-13, (S)-2-(2,6-dichlorobenzamido)-3-(3-((S)-1-phenylethyl)ureido)propanoic acid]
10 to 100 µM	COc1cccc(CNC(=O)NC[C@H](NC(=O)c2c(Cl)cccc2Cl)C(=O)O)c1 [KZ-1-15, (S)-2-(2,6-dichlorobenzamido)-3-(3-(3-methoxybenzyl)ureido)propanoic acid]
> 100 µM	CCCNC(=O)NC[C@H](NC(=O)c1c(Cl)cccc1Cl)C(=O)O [KZ-1-27, (S)-2-(2,6-dichlorobenzamido)-3-(3-propylureido)propanoic acid]
> 100 µM	O=C(NCc1ccc(C(F)(F)F)cc1)NC[C@H](NC(=O)c1c(Cl)cccc1Cl)C(=O)O [KZ-1-30, (S)-2-(2,6-dichlorobenzamido)-3-(3-(4-(trifluoromethyl)benzyl)ureido)propanoic acid]
10 to 100 µM	C[C@@H](NC(=O)NC[C@H](NC(=O)c1c(Cl)cccc1Cl)C(=O)O)c1ccccc1 [KZ-1-12, (S)-2-(2,6-dichlorobenzamido)-3-(3-((R)-1-phenylethyl)ureido)propanoic acid]
10 to 100 µM	O=C(NCc1cccs1)NC[C@H](NC(=O)c1c(Cl)cccc1Cl)C(=O)O [KZ-1-34, (S)-2-(2,6-dichlorobenzamido)-3-(3-(thiophen-2-ylmethyl)ureido)propanoic acid]
10 to 100 µM	O=C(NC[C@H](NC(=O)c1c(Cl)cccc1Cl)C(=O)O)NC12CCC3CC(CC(C3)C1)C2 [A2-181, (25)-2-(2,6-dichlorobenzamido)-3-(3-(tricyclo[4.3.1.13,8]undecan-3-yl)ureido)propanoic acid]
> 100 µM	O=C(NCc1c(F)cccc1F)NC[C@H](NC(=O)c1c(Cl)cccc1Cl)C(=O)O [KZ-1-33, (S)-2-(2,6-dichlorobenzamido)-3-(3-(2,6-difluorobenzyl)ureido)propanoic acid]
> 100 µM	Cc1ccc(CNC(=O)NC[C@H](NC(=O)c2c(Cl)cccc2Cl)C(=O)O)cc1 [KZ-1-9, (S)-2-(2,6-dichlorobenzamido)-3-(3-(4-methylbenzyl)ureido)propanoic acid]
> 100 µM	COc1ccc(CNC(=O)NC[C@H](NC(=O)c2c(Cl)cccc2Cl)C(=O)O)cc1 [KZ-1-20, (S)-2-(2,6-dichlorobenzamido)-3-(3-(4-methoxybenzyl)ureido)propanoic acid]
